Measurements: US11026942B2, “Agent for preventing and/or treating Alzheimer's disease” (KYOTO UNIVERSITY, priority 2015, dated 2021)

Tests used:
Type in all cases: cell-based, human
Aβ42 = Aβ42 in FAD1 iPS cell-derived nerve cells (primary/secondary screening, dose dependency); settings: secondary screening, FAD1 iPS cell-derived nerve cells, numerical value (Aβ change rate)
Source text: (§1) To perform induction from iPS cells to the cerebral cortex nerve early and with high reproducibility, iPS cells introduced with human Neurogenin 2 gene (NGN2) linked to doxycycline-inducible promoter by using PiggyBac were used (FIG. 1a, FIG. 1b, FIG. 4a and FIG. 4b). IPS cells prepared from 4 patients with familial Alzheimer's disease (FAD), 2 patients with sporadic Alzheimer's disease (SAD) and 4 healthy individuals (HC) were used. The iPS cells were established by the method described in Okita K et al., Nature.
(§2) Structural formulas (those in the form of salt or halide are also described as free form) and the general names of the candidate compounds are shown in Table 1.
(§3) To further study reproducibility of the candidate drugs obtained by the primary screening, secondary screening was conducted. In addition to Aβ40, Aβ42, Aβ42/40 ratio, Aβ38, Aβ43, sAPPα, sAPPβ were also studied and each numerical value was obtained.

Aβ42/40 ratio = Aβ42/40 ratio in FAD1 iPS cell-derived nerve cells (primary/secondary screening, dose dependency); settings: secondary screening
Source text: as §1, §2, §3

Aβ38 = Aβ38 in FAD1 iPS cell-derived nerve cells (secondary screening); design: scale not given here
Experimental: as §3

Aβ43 = Aβ43 in FAD1 iPS cell-derived nerve cells (secondary screening); design: scale not given here
Experimental: as §3

sAPPα = sAPPα in FAD1 iPS cell-derived nerve cells (secondary screening); design: scale not given here; settings: secondary screening, FAD1 iPS cell-derived nerve cells
Experimental: as §3

sAPPβ = sAPPβ in FAD1 iPS cell-derived nerve cells (secondary screening); design: sAPPβ: scale not given here; settings: secondary screening, FAD1 iPS cell-derived nerve cells
Experimental: as §3

Structure (SMILES) | Aβ42 (Aβ42) | Ratio Aβ42/40 (Aβ42/40 ratio) | Aβ38 (Aβ38) | Aβ43 (Aβ43) | sAPPα (sAPPα) | sAPPβ (sAPPβ)
CN1CCCN=C1COC(=O)C(O)(c1ccccc1)C1CCCCC1 (stereo not drawn) [compound 1, OXYPHENCYCLIMINE] | 0.99 | 1.03 | 1.08 | 0.98 | 0.91 | 1
Cc1cccc(C)c1NC(=O)C1CCCCN1C (stereo not drawn) [compound 2, MEPIVACAINE] | 0.9 | 0.93 | 1.01 | 0.83 | 0.77 | 0.88
COc1ccccc1OCC(O)CN1CCN(CC(=O)Nc2c(C)cccc2C)CC1 (stereo not drawn) [compound 3, RANOLAZINE] | 0.85 | 0.89 | 1 | 0.82 | 0.64 | 0.61
CNCC[C@@H](Oc1ccccc1C)c1ccccc1 [compound 4, ATOMOXETINE] | 0.95 | 0.94 | 1.1 | 0.89 | 0.78 | 0.81
CN(C/C=C/C#CC(C)(C)C)Cc1cccc2ccccc12 [compound 5, TERBINAFINE] | 0.94 | 0.96 | 1.06 | 0.94 | 0.98 | 1.06
CN(C)C(=O)C(CCN1CCC(O)(c2ccc(Cl)cc2)CC1)(c1ccccc1)c1ccccc1 [compound 6, LOPERAMIDE] | 0.88 | 0.93 | 1.03 | 0.88 | 0.89 | 0.78
CCN(CCCc1ccccc1)CCCc1ccccc1 [compound 7, ALVERINE] | 0.86 | 0.93 | 0.94 | 0.79 | 0.78 | 0.63
CN1CCc2cccc3c2[C@H]1Cc1ccc(O)c(O)c1-3 [compound 8, APOMORPHINE] | 0.93 | 1.01 | 1.08 | 1.01 | 0.8 | 0.78
CCN(CC)CCOc1ccc(/C(=C(\Cl)c2ccccc2)c2ccccc2)cc1 [compound 9, CLOMIPHENE] | 0.83 | 0.89 | 1.04 | 0.86 | 0.71 | 0.66
CN1C(=O)CC[C@H]1c1cccnc1 [compound 10, COTININE] | 0.87 | 0.94 | 1.08 | 0.87 | 0.81 | 0.81
O=C(O)c1cc(=O)c2c(OCC(O)COc3cccc4oc(C(=O)O)cc(=O)c34)cccc2o1 [compound 11, CROMOLYN] | 0.88 | 0.96 | 1.04 | 0.82 | 0.89 | 0.86
CN1CCN(C(c2ccccc2)c2ccccc2)CC1 [compound 12, CYCLIZINE] | 1.04 | 0.95 | 1.23 | 1.06 | 1.03 | 1.3
CNCCCN1c2ccccc2CCc2ccccc21 [compound 13, DESIPRAMINE] | 0.94 | – | – | 0.9 | 0.83 | 1.01
CN(C)CCOC(c1ccccc1)c1ccccc1 [compound 14, diphenhydramine] | 0.98 | – | 1.06 | 0.97 | 0.97 | 1.02
CCN(CC)C(C)CN1c2ccccc2Sc2ccccc21 (stereo not drawn) [compound 15, ETHOPROPAZINE] | 0.84 | 0.88 | 1.03 | 0.84 | 0.72 | 0.71
CN1[C@@H]2CC[C@@H]1CC(OC(=O)C(O)c1ccccc1)C2 (stereo partly drawn) [compound 16, HOMATROPINE] | 1.04 | – | 1.22 | 1.09 | 1.15 | 1.24
CN(C)CCCN1c2ccccc2CCc2ccccc21 [compound 17, IMIPRAMINE] | – | – | 1.12 | 1.27 | – | 1.2
Nc1c2c(nc3ccccc13)CCCC2 [compound 18, TACRINE] | 1 | 1.02 | 1.18 | 1.21 | 1.04 | 1.23

Structure (SMILES) | Aβ42 (Aβ42) | Ratio Aβ42/40 (Aβ42/40 ratio) | Aβ38 (Aβ38) | Aβ43 (Aβ43) | sAPPα (sAPPα) | sAPPβ (sAPPβ)
CC(C)[N+](C)(CCC(C(N)=O)(c1ccccc1)c1ccccc1)C(C)C [compound 19, ISOPROPAMIDE] | 0.88 | 1.24 | 1.09 | 0.95 | 0.84 | 0.74
c1ccc2[nH]c(-c3cscn3)nc2c1 [compound 20, THIABENDAZOLE] | 0.84 | 0.88 | 1.05 | 0.79 | 0.79 | 0.67
CNCCc1ccccn1 [compound 21, BETAHISTINE] | 0.98 | 1.08 | 1.01 | 0.87 | 0.73 | 0.91
OC1CCCCC1N1CCC(c2ccccc2)CC1 (stereo not drawn) [compound 22, VESAMICOL] | 0.9 | 0.97 | 1 | 0.87 | 0.89 | 0.74
Oc1ccc(OCc2ccccc2)cc1 [compound 23, MONOBENZONE] | 0.82 | 0.91 | 1.05 | 0.89 | 0.74 | 0.56
CN1CCN(C2=Nc3ccccc3Oc3ccc(Cl)cc32)CC1 [compound 25, LOXAPINE] | 0.94 | 0.98 | 1.11 | 1.14 | 1.15 | 1.11
CCc1cccc2c3c([nH]c12)C(CC)(CC(=O)O)OCC3 (stereo not drawn) [compound 26, ETODOLAC] | 0.99 | 1.13 | 1.11 | 1.55 | 0.99 | 0.98
c1ccc(-c2ccc(C(c3ccccc3)n3ccnc3)cc2)cc1 (stereo not drawn) [compound 27, BIFONAZOLE] | 0.84 | 0.84 | 1.06 | 0.99 | 1.04 | 1.19
CN1Cc2c(N)cccc2C(c2ccccc2)C1 (stereo not drawn) [compound 28, NOMIFENSINE] | 0.8 | 0.75 | 0.95 | 0.85 | 0.82 | 0.67
O=C(O)COCCN1CCN([C@H](c2ccccc2)c2ccc(Cl)cc2)CC1 [compound 30, LEVOCETIRIZINE] | 0.76 | – | 0.98 | 0.85 | 0.93 | 0.93
CSc1ccc2c(c1)C(N1CCN(C)CC1)Cc1ccccc1S2 (stereo not drawn) [compound 31, METITEPINE] | 0.83 | 0.86 | 1.03 | 0.88 | 0.76 | 0.66
O=C(O)CCNC(=O)c1ccccc1 [compound 32, BETAMIPRON] | 0.84 | 0.82 | 1.1 | 0.82 | 0.7 | 0.6
CCN(CC)CCNC(C(=O)OCCC(C)C)c1ccccc1 (stereo not drawn) [compound 33, CAMYLOFINE] | 0.9 | 0.85 | 1.12 | 0.88 | 0.89 | 0.71
O=C(CCNNC(=O)c1ccncc1)NCc1ccccc1 [compound 34, NIALAMIDE] | 0.92 | 0.87 | 1.16 | 0.97 | 0.92 | 1.13
O=S(=O)(O)c1cc(I)c(O)c2ncccc12 [compound 35, CHINIOFON] | 0.83 | 0.86 | 1.05 | 0.79 | 0.71 | 0.6
c1cnc(N2CCN(Cc3ccc4c(c3)OCO4)CC2)nc1 [compound 36, PIRIBEDIL] | 0.87 | 0.83 | 1.11 | 1.09 | 0.92 | 0.82
O=C(O)c1cccnc1Nc1cccc(C(F)(F)F)c1 [compound 37, NIFLUMIC ACID] | 0.77 | 0.86 | 0.97 | 0.85 | 0.8 | 0.92
CCN(CC)CCOC(=O)C1(C2CCCCC2)CCCCC1 [compound 104, DICYCLOMINE] | 0.93 | – | 1.08 | 0.82 | 0.81 | 0.84
